Experimental data from ChEMBL document CHEMBL5236615, “Discovery of Novel N-Heterocyclic-Fused Deoxypodophyllotoxin Analogues as Tubulin Polymerization Inhibitors Targeting the Colchicine-Binding Site for Cancer Treatment” (J Med Chem, 2022).
Converted amounts (≈) assume the structure as drawn. The source made the active and inactive calls. The calls are words filed in the database; no cut-off is given here.

Key:
[1] = system: MCF7; test: Induction of cell cycle arrest in human MCF7 cells assessed as arrest in G2/M phase by measuring accumulation of p21 at 5 to 25 nM incubated for 24 hrs by Western blotting analysis; assay type: functional, cell-based; details: dose 5-25 nM
[2] = system: HT-29; test: Antiproliferative activity against human HT-29 cells measured after 72 hrs by MTT assay; assay type: functional, cell-based; details: HT-29, 72 h
[3] = system: MCF7; test: Induction of apoptosis in human MCF7 cells assessed as upregulation of cleaved Caspase 3 at 5 to 20 nM measured after 24 hrs by Western blot analysis; assay type: functional, cell-based; details: dose 5-20 nM
[4] = Antiproliferative activity against paclitaxel-resistant human MCF7/TxR cells measured after 72 hrs by MTT assay; assay type: functional, cell-based
[5] = system: MCF7; test: Induction of apoptosis in human MCF7 cells assessed as upregulation of BaX protein expression at 5 to 20 nM measured after 24 hrs by Western blot analysis; assay type: functional, cell-based; details: dose 5-20 nM
[6] = molecular target: T1, Tubulin (Sus scrofa, UniProt P02554+P02550); test: Binding affinity to porcine brain tubulin assessed as changes in the fluorescence incubated for 10 mins tryptophan-based binding assay
[7] = system: A549/TxR; test: Inhibition of colony formation of paclitaxel-resistant human A549/TxR cells at 20 nM measured after 24 hrs by crystal violet based assay; assay type: functional, cell-based
[8] = system: HUVEC; test: Inhibition of angiogenesis in HUVEC cells assessed as reduction in capillary tube formation after 6 hrs by phase contrast microscopy; assay type: functional, cell-based; details: Homo sapiens, dose 1.25-5 nM
[9] = Toxicity in Balb/c mouse xenografted with human MCF7 cells assessed as pathological changes in spleen at 5 to 20 mg/kg, ip administered for every 2 days for 21 days by hematoxylin and eosin staining based analysis; assay type: organism-based; details: in vivo, 504 h, dose 5-20 mg/kg, time 21 day
[10] = system: MCF7; test: Induction of cell cycle arrest in human MCF7 cells assessed as arrest in G2/M phase by measuring accumulation of CDK7 at 5 to 25 nM incubated for 24 hrs by Western blotting analysis; assay type: functional, cell-based; details: dose 5-25 nM
[11] = system: MCF7; test: Antitumor activity against human MCF7 cells xenografted in Balb/c mouse assessed as tumor growth inhibition at 10 mg/kg, ip administered for every 2 days for 21 days; assay type: functional; details: MCF7, 504 h, time 21 day, read-out: TGI
[12] = system: MCF7; test: Induction of apoptosis in human MCF7 cells assessed as upregulation of p-Bim L protein expression at 5 to 20 nM measured after 24 hrs by Western blot analysis; assay type: functional, cell-based; details: dose 5-20 nM
[13] = system: HUVEC; test: Inhibition of angiogenesis in HUVEC cells assessed as broken tubular network at 5 nM after 6 hrs by phase contrast microscopy; assay type: functional, cell-based; details: Homo sapiens
[14] = Metabolic stability in human liver microsomes assessed as half life at 1 uM by LC/MS analysis; assay type: ADME, Microsome
[15] = system: MCF7; test: Induction of cell cycle arrest in human MCF7 cells assessed as accumulation of cells at G2/M phase at 5 nM measured after 24 hrs by flow cytometry relative to control; assay type: functional
[16] = system: MCF7; test: Induction of cell cycle arrest in human MCF7 cells assessed as accumulation of cells at G2/M phase at 20 nM measured after 24 hrs by flow cytometry relative to control; assay type: functional
[17] = Toxicity in Balb/c mouse xenografted with human MCF7 cells assessed as body weight loss at 5 to 20 mg/kg, ip administered for every 2 days for 21 days; assay type: organism-based; details: in vivo, 48 h, dose 5-20 mg/kg, time 2 day
[18] = molecular target: T2, Tubulin (Homo sapiens) (UniProt P68371+Q9H4B7+P0DPH7+P68366+Q13509+Q71U36+P04350+Q3ZCM7+P07437+P68363+Q9BQE3+Q6PEY2+Q13885+Q9BVA1+Q9BUF5); test: Inhibition of [3H]colchicine binding to tubulin (unknown origin) at 1 uM by competition scintillation proximity assay relative to control; assay type: protein-complex assay
[19] = system: MCF7; test: Induction of ROS generation in human MCF7 cells assessed as increase in intracellular ROS level measured after 12 hrs by DCFH-DA staining based assay; assay type: functional, cell-based; details: dose 5-20 nM
[20] = Toxicity in Balb/c mouse xenografted with human MCF7 cells assessed as pathological changes in lung at 5 to 20 mg/kg, ip administered for every 2 days for 21 days by hematoxylin and eosin staining based analysis; assay type: organism-based; details: in vivo, 504 h, dose 5-20 mg/kg, time 21 day
[21] = system: MCF7; test: Induction of cell cycle arrest in human MCF7 cells assessed as mitosis by measuring accumulation of histone H3 ser10 phosphorylation incubated for 24 hrs by Western blotting analysis; assay type: functional, cell-based; details: dose 5-25 nM
[22] = system: MCF7; test: Induction of cell cycle arrest in human MCF7 cells assessed as mitosis by measuring accumulation of histone H3 ser10 phosphorylation incubated for 24 hrs by immunofluorescence assay; assay type: functional, cell-based; details: dose 5-25 nM
[23] = system: MCF7; test: Antitumor activity against human MCF7 cells xenografted in Balb/c mouse assessed as decrease in Ki67-positive tumor cells in tumor at 20 mg/kg, ip administered for every 2 days for 21 days; assay type: functional, organism-based; details: time 2.0 day
[24] = system: A549/TxR; test: Induction of apoptosis in paclitaxel-resistant human A549/TxR cells incubated for 24 hrs by annexinV/PI assay; assay type: functional, cell-based; details: dose 5-20 nM
[25] = molecular target: T2, Tubulin (Homo sapiens); test: Inhibition of [3H]colchicine binding to tubulin (unknown origin) at 5 uM by competition scintillation proximity assay relative to control; assay type: protein-complex assay
[26] = Antiproliferative activity against paclitaxel-resistant human A549/TxR cells measured after 72 hrs by MTT assay; assay type: functional, cell-based
[27] = system: MCF7; test: Antitumor activity against human MCF7 cells xenografted in Balb/c mouse assessed as tumor growth inhibition at 5 mg/kg, ip administered for every 2 days for 21 days; assay type: functional; details: MCF7, 504 h, time 21 day, read-out: TGI
[28] = molecular target: T1, Tubulin; test: Inhibition of porcine brain tubulin assessed as changes in the fluorescence intensity measured for 60 mins by cell free tubulin polymerization assay
[29] = system: MCF7; test: Antitumor activity against human MCF7 cells xenografted in Balb/c mouse assessed as tumor growth inhibition at 20 mg/kg, ip administered for every 2 days for 21 days; assay type: functional; details: MCF7, 504 h, time 21 day, read-out: TGI
[30] = Aqueous solubility in pH 7.4 PBS buffer by HPLC-UV analysis; assay type: physicochemical
[31] = system: A549; test: Antimigratory activity against human A549 cells assessed as inhibition of cell migration measured after 24 hrs by crystal violet staining based transwell migration assay; assay type: functional; details: dose 1.25-5 nM
[32] = molecular target: ATP-dependent translocase ABCB1 (Homo sapiens, UniProt P08183); test: Substrate activity at P-glycoprotein in paclitaxel-resistant human MCF/TxR cells assessed as intracellular Rhodamine-123 content at 10 uM incubated for 12 hrs by confocal microscopy; assay type: cell-based; details: mcf7/txr
[33] = system: MCF7; test: Induction of apoptosis in human MCF7 cells assessed as upregulation of p-Bim EL protein expression at 5 to 20 nM measured after 24 hrs by Western blot analysis; assay type: functional, cell-based; details: dose 5-20 nM
[34] = Toxicity in Balb/c mouse xenografted with human MCF7 cells assessed as pathological changes in liver at 5 to 20 mg/kg, ip administered for every 2 days for 21 days by hematoxylin and eosin staining based analysis; assay type: organism-based; details: in vivo, 504 h, dose 5-20 mg/kg, time 21 day
[35] = system: MCF7; test: Induction of apoptosis in human MCF7 cells incubated for 24 hrs by annexinV/PI assay; assay type: functional, cell-based; details: dose 5-25 nM
[36] = system: MCF7; test: Induction of cell cycle arrest in human MCF7 cells assessed as accumulation of cells at G2/M phase at 10 nM measured after 24 hrs by flow cytometry relative to control; assay type: functional
[37] = system: MCF7; test: cells; details: Homo sapiens, MCF7, 72 h
Description: Antiproliferative activity against human MCF7 cells measured after 72 hrs by MTT assay

Chain of ATP-dependent translocase ABCB1 (P08183 whole entry): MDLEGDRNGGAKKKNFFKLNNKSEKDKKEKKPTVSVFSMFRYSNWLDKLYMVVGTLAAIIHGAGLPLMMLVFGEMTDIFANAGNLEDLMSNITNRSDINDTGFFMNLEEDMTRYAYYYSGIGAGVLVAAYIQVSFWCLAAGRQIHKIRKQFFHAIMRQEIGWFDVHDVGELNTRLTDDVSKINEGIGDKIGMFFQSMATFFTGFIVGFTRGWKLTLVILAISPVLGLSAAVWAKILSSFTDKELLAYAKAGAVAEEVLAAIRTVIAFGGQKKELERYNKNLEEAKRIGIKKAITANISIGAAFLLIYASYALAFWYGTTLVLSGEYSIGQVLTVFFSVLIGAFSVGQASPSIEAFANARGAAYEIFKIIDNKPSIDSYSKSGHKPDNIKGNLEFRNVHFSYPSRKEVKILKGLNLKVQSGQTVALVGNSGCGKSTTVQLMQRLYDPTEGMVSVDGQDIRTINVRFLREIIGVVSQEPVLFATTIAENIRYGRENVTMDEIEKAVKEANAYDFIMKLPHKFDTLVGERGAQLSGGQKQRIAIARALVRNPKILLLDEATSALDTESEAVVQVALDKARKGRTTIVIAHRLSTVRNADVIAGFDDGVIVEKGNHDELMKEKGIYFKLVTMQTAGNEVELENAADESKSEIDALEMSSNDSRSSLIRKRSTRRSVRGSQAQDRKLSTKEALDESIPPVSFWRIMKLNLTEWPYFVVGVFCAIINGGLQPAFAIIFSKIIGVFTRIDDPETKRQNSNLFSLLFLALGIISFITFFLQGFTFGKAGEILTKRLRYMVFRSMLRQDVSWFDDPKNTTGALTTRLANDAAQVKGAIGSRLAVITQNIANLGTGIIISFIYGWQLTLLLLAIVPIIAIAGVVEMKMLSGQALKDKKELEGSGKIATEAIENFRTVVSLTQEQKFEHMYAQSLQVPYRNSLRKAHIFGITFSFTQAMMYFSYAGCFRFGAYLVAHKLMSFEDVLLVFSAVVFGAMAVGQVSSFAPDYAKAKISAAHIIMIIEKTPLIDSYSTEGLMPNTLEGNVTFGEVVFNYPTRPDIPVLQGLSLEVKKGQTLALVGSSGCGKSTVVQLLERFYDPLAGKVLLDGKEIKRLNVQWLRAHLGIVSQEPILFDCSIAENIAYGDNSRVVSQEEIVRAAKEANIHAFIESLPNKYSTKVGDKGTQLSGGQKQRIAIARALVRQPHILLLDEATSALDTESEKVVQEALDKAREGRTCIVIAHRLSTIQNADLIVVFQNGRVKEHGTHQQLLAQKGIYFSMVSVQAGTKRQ

Structure (SMILES) | Activity [1] | IC50 [2] | Activity [3] | IC50 [4] | Activity [5] | Kd [6] | inhibition [7] | Activity [8] | Activity [9] | Activity [10] | inhibition in vivo at 10 mg/kg [11] | Activity [12] | Activity [13] | half-life at 1 µM [14] | Activity [15] | Activity [16] | Activity [17] | inhibition [18] | Activity [19] | Activity [20] | further results
COc1c(Br)cc([C@@H]2c3cc4c(cc3C[C@H]3C(=O)NC(=O)N23)OCCO4)cc1Br | Active | 4.4 nM | Active | 5.2 nM | Active | 1700 nM | Active | Dose-Dependent Effect | Non-Toxic | Active | 73.2% | Active | Dose-Dependent Effect | 10.4 min | 16% | 16% | Non-Toxic | 69.7% | Dose-Dependent Effect | Non-Toxic | Activity [21]: Dose-Dependent Effect; Activity [22]: Dose-Dependent Effect; Activity [23]: Active; inhibition [24]: Dose-Dependent Effect; inhibition [25]: 84.6%; IC50 [26]: 7.9 nM; inhibition in vivo at 5 mg/kg [27]: 20.8%; IC50 [28]: 2310 nM; inhibition in vivo at 20 mg/kg [29]: 78.9%; solubility [30]: < 0.5 µg/mL; Activity [31]: Dose-Dependent Effect; Activity [32]: Not Active; Activity [33]: Active; Activity [34]: Non-Toxic; Activity [35]: Dose-Dependent Effect; Activity [36]: 16%; IC50 [37]: 3.5 nM
COc1c(Cl)cc([C@@H]2c3cc4c(cc3C[C@H]3C(=O)NC(=O)N23)OCCO4)cc1Cl | Active | 8.3 nM | Active | 7.8 nM | Active | 4490 nM | Active | Dose-Dependent Effect | Non-Toxic | Active | 85.1% | Active | Dose-Dependent Effect | 26.1 min | 16% | 16% | Non-Toxic | 71.5% | Dose-Dependent Effect | Non-Toxic | Activity [21]: Dose-Dependent Effect; Activity [22]: Dose-Dependent Effect; Activity [23]: Active; inhibition [24]: Dose-Dependent Effect; inhibition [25]: 88.7%; IC50 [26]: 5.2 nM; inhibition in vivo at 5 mg/kg [27]: 41%; IC50 [28]: 2520 nM; inhibition in vivo at 20 mg/kg [29]: 85.1%; solubility [30]: 2.85 µg/mL (≈ 6.55 µM); Activity [31]: Dose-Dependent Effect; Activity [32]: Not Active; Activity [33]: Active; Activity [34]: Non-Toxic; Activity [35]: Dose-Dependent Effect; Activity [36]: 16%; IC50 [37]: 9.2 nM
